Measured values reported in PubChem BioAssay (NCI).
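These data come from cells grown in 96-well plates and exposed to compound for 48 hours at five concentrations. The concentration for 50% growth inhibition is given as GI50. TGI: total growth inhibition.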

What was measured:
Assay in all cases: NCI-60 cell line screen, 48 h
HS 578T breast = test system: HS 578T breast
HOP-62 NSCLC = test system: HOP-62 NSCLC
SNB-19 CNS = test system: SNB-19 CNS
OVCAR-8 ovarian = test system: OVCAR-8 ovarian
NCI-H460 lung = test system: NCI-H460 lung
A549 NSCLC = test system: A549 NSCLC
HCT-15 colon = test system: HCT-15 colon
MCF7 breast = test system: MCF7 breast
LOX IMVI melanoma = test system: LOX IMVI melanoma
HL-60(TB) leukemia = test system: HL-60(TB) leukemia
HT29 colon = test system: HT29 colon
NCI-H226 lung = test system: NCI-H226 lung
MALME-3M melanoma = test system: MALME-3M melanoma
U251 CNS = test system: U251 CNS
COLO 205 colon = test system: COLO 205 colon
NCI-H23 lung = test system: NCI-H23 lung
BT-549 breast = test system: BT-549 breast
SN12C renal = test system: SN12C renal
ACHN renal = test system: ACHN renal
CAKI-1 renal = test system: CAKI-1 renal
RXF 393 renal = test system: RXF 393 renal
CCRF-CEM leukemia = test system: CCRF-CEM leukemia
SNB-75 CNS = test system: SNB-75 CNS
OVCAR-4 ovarian = test system: OVCAR-4 ovarian
HCT-116 colon = test system: HCT-116 colon
KM12 colon = test system: KM12 colon
IGROV1 ovarian = test system: IGROV1 ovarian
NCI-H522 lung = test system: NCI-H522 lung
HCC-2998 colon = test system: HCC-2998 colon
UO-31 renal = test system: UO-31 renal
SF-539 CNS = test system: SF-539 CNS
SW-620 colon = test system: SW-620 colon
UACC-257 melanoma = test system: UACC-257 melanoma
UACC-62 melanoma = test system: UACC-62 melanoma
MOLT-4 leukemia = test system: MOLT-4 leukemia
M14 melanoma = test system: M14 melanoma
OVCAR-3 ovarian = test system: OVCAR-3 ovarian
T-47D breast = test system: T-47D breast
MDA-MB-231 breast = test system: MDA-MB-231 breast
SK-MEL-28 melanoma = test system: SK-MEL-28 melanoma
SF-295 CNS = test system: SF-295 CNS
MDA-MB-435 = test system: MDA-MB-435
SK-MEL-2 melanoma = test system: SK-MEL-2 melanoma
SR leukemia = test system: SR leukemia
HOP-92 NSCLC = test system: HOP-92 NSCLC
RPMI-8226 leukemia = test system: RPMI-8226 leukemia
K-562 leukemia = test system: K-562 leukemia
A498 renal = test system: A498 renal
SK-MEL-5 melanoma = test system: SK-MEL-5 melanoma
SF-268 CNS = test system: SF-268 CNS
DU-145 prostate = test system: DU-145 prostate
PC-3 prostate = test system: PC-3 prostate
NCI/ADR-RES ovarian = test system: NCI/ADR-RES ovarian
TK-10 renal = test system: TK-10 renal
OVCAR-5 ovarian = test system: OVCAR-5 ovarian
786-0 renal = test system: 786-0 renal
SK-OV-3 ovarian = test system: SK-OV-3 ovarian

With `CCn1cnc(C[C@H](NC(=O)[C@@H](NC(=O)Nc2cc(C(F)(F)F)cc(C(F)(F)F)c2)C(C)(C)C)C(=O)OC)c1` the GI50 (HS 578T breast) was > 10 µM, the TGI (HS 578T breast) was > 10 µM and the GI50 (HOP-62 NSCLC) was > 10 µM. For the same compound, the TGI (HOP-62 NSCLC) was > 10 µM, the GI50 (SNB-19 CNS) was > 10 µM and the TGI (SNB-19 CNS) was > 10 µM. The GI50 (OVCAR-8 ovarian) was > 10 µM, the TGI (OVCAR-8 ovarian) was > 10 µM and the GI50 (NCI-H460 lung) was > 10 µM. The TGI (NCI-H460 lung) was > 10 µM, the GI50 (A549 NSCLC) was > 10 µM and the TGI (A549 NSCLC) was > 10 µM. For the same compound, the GI50 (HCT-15 colon) was > 10 µM, the TGI (HCT-15 colon) was > 10 µM and the GI50 (MCF7 breast) was > 10 µM. The TGI (MCF7 breast) was > 10 µM, the GI50 (LOX IMVI melanoma) was > 10 µM and the TGI (LOX IMVI melanoma) was > 10 µM. For the same compound, the GI50 (HL-60(TB) leukemia) was > 10 µM, the TGI (HL-60(TB) leukemia) was > 10 µM and the GI50 (HT29 colon) was > 10 µM. For the same compound, the TGI (HT29 colon) was > 10 µM, the GI50 (NCI-H226 lung) was > 10 µM and the TGI (NCI-H226 lung) was > 10 µM. The GI50 (MALME-3M melanoma) was > 10 µM, the TGI (MALME-3M melanoma) was > 10 µM and the GI50 (U251 CNS) was > 10 µM. For the same compound, the TGI (U251 CNS) was > 10 µM, the GI50 (COLO 205 colon) was > 10 µM and the TGI (COLO 205 colon) was > 10 µM. The GI50 (NCI-H23 lung) was > 10 µM, the TGI (NCI-H23 lung) was > 10 µM and the GI50 (BT-549 breast) was > 10 µM. The TGI (BT-549 breast) was > 10 µM, the GI50 (SN12C renal) was > 10 µM and the TGI (SN12C renal) was > 10 µM. The GI50 (ACHN renal) was > 10 µM, the TGI (ACHN renal) was > 10 µM and the GI50 (CAKI-1 renal) was > 10 µM. The TGI (CAKI-1 renal) was > 10 µM, the GI50 (RXF 393 renal) was > 10 µM and the TGI (RXF 393 renal) was > 10 µM. For the same compound, the GI50 (CCRF-CEM leukemia) was > 10 µM, the TGI (CCRF-CEM leukemia) was > 10 µM and the GI50 (SNB-75 CNS) was > 10 µM. The TGI (SNB-75 CNS) was > 10 µM, the GI50 (OVCAR-4 ovarian) was > 10 µM and the TGI (OVCAR-4 ovarian) was > 10 µM. The GI50 (HCT-116 colon) was > 10 µM, the TGI (HCT-116 colon) was > 10 µM and the GI50 (KM12 colon) was > 10 µM. The TGI (KM12 colon) was > 10 µM, the GI50 (IGROV1 ovarian) was > 10 µM and the TGI (IGROV1 ovarian) was > 10 µM. For the same compound, the GI50 (NCI-H522 lung) was > 10 µM, the TGI (NCI-H522 lung) was > 10 µM and the GI50 (HCC-2998 colon) was > 10 µM. The TGI (HCC-2998 colon) was > 10 µM, the GI50 (UO-31 renal) was > 10 µM and the TGI (UO-31 renal) was > 10 µM. The GI50 (SF-539 CNS) was > 10 µM, the TGI (SF-539 CNS) was > 10 µM and the GI50 (SW-620 colon) was > 10 µM. For the same compound, the TGI (SW-620 colon) was > 10 µM, the GI50 (UACC-257 melanoma) was > 10 µM and the TGI (UACC-257 melanoma) was > 10 µM. The GI50 (UACC-62 melanoma) was > 10 µM, the TGI (UACC-62 melanoma) was > 10 µM and the GI50 (MOLT-4 leukemia) was > 10 µM. For the same compound, the TGI (MOLT-4 leukemia) was > 10 µM, the GI50 (M14 melanoma) was > 10 µM and the TGI (M14 melanoma) was > 10 µM. For the same compound, the GI50 (OVCAR-3 ovarian) was > 10 µM, the TGI (OVCAR-3 ovarian) was > 10 µM and the GI50 (T-47D breast) was > 10 µM. For the same compound, the TGI (T-47D breast) was > 10 µM, the GI50 (MDA-MB-231 breast) was > 10 µM and the TGI (MDA-MB-231 breast) was > 10 µM. The GI50 (SK-MEL-28 melanoma) was > 10 µM, the TGI (SK-MEL-28 melanoma) was > 10 µM and the GI50 (SF-295 CNS) was > 10 µM. For the same compound, the TGI (SF-295 CNS) was > 10 µM, the GI50 (MDA-MB-435) was > 10 µM and the TGI (MDA-MB-435) was > 10 µM. The GI50 (SK-MEL-2 melanoma) was > 10 µM, the TGI (SK-MEL-2 melanoma) was > 10 µM and the GI50 (SR leukemia) was > 10 µM. The TGI (SR leukemia) was > 10 µM, the GI50 (HOP-92 NSCLC) was > 10 µM and the TGI (HOP-92 NSCLC) was > 10 µM. For the same compound, the GI50 (RPMI-8226 leukemia) was > 10 µM, the TGI (RPMI-8226 leukemia) was > 10 µM and the GI50 (K-562 leukemia) was > 10 µM. The TGI (K-562 leukemia) was > 10 µM, the GI50 (A498 renal) was > 10 µM and the TGI (A498 renal) was > 10 µM. For the same compound, the GI50 (SK-MEL-5 melanoma) was > 10 µM, the TGI (SK-MEL-5 melanoma) was > 10 µM and the GI50 (SF-268 CNS) was > 10 µM. For the same compound, the TGI (SF-268 CNS) was > 10 µM, the GI50 (DU-145 prostate) was > 10 µM and the TGI (DU-145 prostate) was > 10 µM. The GI50 (PC-3 prostate) was > 10 µM, the TGI (PC-3 prostate) was > 10 µM and the GI50 (NCI/ADR-RES ovarian) was > 10 µM. The TGI (NCI/ADR-RES ovarian) was > 10 µM, the GI50 (TK-10 renal) was > 10 µM and the TGI (TK-10 renal) was > 10 µM. For the same compound, the GI50 (OVCAR-5 ovarian) was > 10 µM, the TGI (OVCAR-5 ovarian) was > 10 µM and the GI50 (786-0 renal) was > 10 µM. The TGI (786-0 renal) was > 10 µM, the GI50 (SK-OV-3 ovarian) was > 10 µM and the TGI (SK-OV-3 ovarian) was > 10 µM.
